The source of these data is patent publication US20210179578A1, “OX1 ANTAGONISTS” (Heptares Therapeutics Limited, priority 2017, published 2021).

In one assay the target is T1, human OX1 receptor (Homo sapiens, UniProt O43613).
T1 sequence (O43613 1-425): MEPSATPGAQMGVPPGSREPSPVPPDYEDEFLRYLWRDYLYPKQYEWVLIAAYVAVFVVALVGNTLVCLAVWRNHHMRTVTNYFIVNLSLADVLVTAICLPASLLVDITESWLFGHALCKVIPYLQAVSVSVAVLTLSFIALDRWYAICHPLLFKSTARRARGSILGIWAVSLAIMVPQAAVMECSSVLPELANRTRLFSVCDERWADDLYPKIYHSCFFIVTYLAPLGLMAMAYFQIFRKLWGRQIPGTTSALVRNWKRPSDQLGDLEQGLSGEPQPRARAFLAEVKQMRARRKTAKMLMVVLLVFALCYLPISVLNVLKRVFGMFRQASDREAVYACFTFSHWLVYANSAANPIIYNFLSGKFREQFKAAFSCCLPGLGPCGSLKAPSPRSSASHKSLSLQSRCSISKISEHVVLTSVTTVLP
The assay can be described thus: [3H]-radioligand binding assay, OX1. Also on record: made in house; host or cells: SF21 insect cells (baculovirus; P0 virus made in SF9). Conditions: for Ki: [3H]-radioligand binding, human OX1 membranes, read-out: pKi average OX1 (converted). The source says:
(§1) Cloning, Baculovirus generation, large-scale infection of SF21 cells and membrane preparation. Human OX1 or OX2 receptor were cloned into Invitrogen's (ThermoFisher Scientific, UK) Bac-to-Bac Baculovirus Expression System. P0 baculovirus was generated by transfecting SF9 cells with bacmid DNA using Cellfectin® II transfection reagent (ThermoFisher Scientific, UK, Catalog number 10362-100). Following P0 generation P1 virus was then generated ready for large scale infection and membrane preparation. SF21 cells were grown in expression medium ESF921 (Expression Systems, USA, catalog number 96-001-01) supplemented with 10% heat-inactivated FBS and 1% Pen/Strep and were infected at a cell density of 2.5×10^6 cells/mL and a multiplicity of infection of 1.0 for both human OX1R and OX2R. Incubation was carried out at over 48 h in a shaking incubator set at 27° C. The cell culture was then centrifuged at 2,500 rcf for 10 min at 4° C. The pellets were resuspended in cold PBS supplemented with Roche's Complete EDTA-free protease inhibitor cocktail tablets (Roche Applied Sciences, catalog number 05056489001), 1 mM PMSF and 1 mM EDTA. The resuspended cell paste was then centrifuged at 3,273 rcf for 12 min at 4° C. The supernatant was discarded and the pellet frozen at −80° C. The cell pellet from a 4 L culture was resuspended in buffer containing 50 mM HEPES pH 7.5, 150 mM NaCl, 8 Roche EDTA-Free protease inhibitor cocktail tablets and 1 mM PMSF. The suspension was left stirring at rt for 1 h and then homogenised for 90 s at 9,500 rpm using a VDI 25 (VWR, USA) homogeniser. The cells were then lysed using a Microfluidiser processor M-110L Pneumatic (Microfluidics, USA) at 60 PSI and membranes collected by ultracentrifugation at 204.7 k×g for 1 h. The supernatant was discarded and the pellet was resuspended and homogenised in 90 s at 9,500 rpm in 50 mL (25 mL for each 2 L culture) of buffer containing 50 mM Hepes pH 7.5, 150 mM NaCl, 3 Roche EDTA-free protease inhibitor cocktail tablets and 1 mM PMSF. The resulting membranes were then stored at −80° C.
(§2) [^3H]-radioligand binding assay. After thawing, membrane homogenates were resuspended in the binding buffer (8.5 mM HEPES, pH 7.4, 1.3 mM CaCl2, 1.2 mM MgSO4, 118 mM NaCl, 4.7 mM KCl, 4 mM NaHCO3, 1.2 mM KH2PO4, 11 mM glucose) to a final assay concentration of 6.4 μg (OX1) or 1.4 μg (OX2) protein per well. Saturation isotherms were determined by the addition of various concentrations (0-30 nM) of [^3H]-4-(2,6-difluoro-4-methoxybenzyl)-2-(5,6-dimethoxypyridin-3-yl)-2H-1,2,4-benzothiadiazin-3(4H)-one 1,1-dioxide (Christopher et al, MedChemComm., 2015, 6, 947-955) in a total reaction volume of 250 μL for 90 min at rt. At the end of the incubation, membranes were filtered onto a 96-well GF/B filter pre-incubated with 0.5% polyethylenimine, with a Tomtec cell harvester and washed 5 times with 0.5 mL distilled water. Non-specific binding (NSB) was measured in the presence of 3.33 μM [4-(5-chloro-1,3-benzoxazol-2-yl)-7-methyl-1,4-diazepan-1-yl][5-methyl-2-(2H-1,2,3-triazol-2-yl)phenyl]methanone (Wertz et al, Angew. Chem. Int. Ed., 2011, 50, 11511-11515). Radioactivity on the filter was counted (1 min) on a Microbeta radiometric plate counter (Perkin Elmer) after addition of 50 μL of scintillation fluid (LabLogic: Part #SG-BXX-14). […] IC50 values were derived from the inhibition curve and the equilibrium dissociation constant (Ki) values were calculated using the Cheng-Prusoff equation.

For the next assay, the target named is T2, human OX2 receptor (Homo sapiens, UniProt O43614).
T2 sequence (O43614 1-444): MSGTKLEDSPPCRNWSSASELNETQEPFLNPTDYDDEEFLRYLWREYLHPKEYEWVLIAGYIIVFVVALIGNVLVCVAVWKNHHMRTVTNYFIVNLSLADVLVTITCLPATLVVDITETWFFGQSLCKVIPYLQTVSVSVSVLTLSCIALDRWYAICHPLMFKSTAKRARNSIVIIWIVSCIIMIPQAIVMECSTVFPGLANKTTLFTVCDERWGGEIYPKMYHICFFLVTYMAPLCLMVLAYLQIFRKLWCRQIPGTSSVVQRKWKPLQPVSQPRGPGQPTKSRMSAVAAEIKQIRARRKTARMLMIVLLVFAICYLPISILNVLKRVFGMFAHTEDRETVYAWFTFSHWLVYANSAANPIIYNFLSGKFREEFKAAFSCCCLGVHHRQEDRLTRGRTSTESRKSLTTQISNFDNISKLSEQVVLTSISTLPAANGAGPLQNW
The assay can be described thus: [3H]-radioligand binding assay, OX2. On the set-up: made in house; host or cells: SF21 insect cells (baculovirus; P0 virus made in SF9). Conditions: for Ki: [3H]-radioligand binding, human OX2 membranes, read-out: pKi average OX2 (converted).
Text: as §1, §2

Regarding `COc1ncc(C2CCc3c(F)cccc3N(Cc3c(F)cc(Br)cc3F)C2=O)cc1C(C)(F)F` (single isomer, unassigned) [Example 11, 1-(4-bromo-2,6-difluorobenzyl)-3-[5-(1,1-difluoroethyl)-6-methoxypyridin-3-yl]-6-fluoro-1,3,4,5-tetrahydro-2H-1-benzazepin-2-one], the Ki at human OX1 receptor was 1.58 nM; at human OX2 receptor, above 126 nM.

`COc1ncc(C2CCc3c(F)cccc3N(Cc3c(F)cc(Br)cc3F)C2=O)cc1S(C)(=O)=O` (single isomer, unassigned) [Example 20, 1-(4-bromo-2,6-difluorobenzyl)-6-fluoro-3-[6-methoxy-5-(methylsulfonyl)pyridin-3-yl]-1,3,4,5-tetrahydro-2H-1-benzazepin-2-one]: the Ki was 200 nM on human OX1 receptor and above 631 nM at human OX2 receptor.

Regarding `COCc1cc(F)c(CN2C(=O)C(c3cnc(C)c(C(C)(F)F)c3)CCc3c(F)cccc32)c(F)c1` (single isomer, unassigned) [Example 40, 3-[5-(1,1-difluoroethyl)-6-methylpyridin-3-yl]-1-[2,6-difluoro-4-(methoxymethyl)benzyl]-6-fluoro-1,3,4,5-tetrahydro-2H-1-benzazepin-2-one], the Ki on human OX1 receptor is 1.58 nM; on human OX2 receptor it was above 15.8 nM.

As to `Cc1ncc(C2CCc3c(F)cccc3N(Cc3cc(C#N)ccc3F)C2=O)cc1C(C)(F)F` (single isomer, unassigned) [Example 41, 3-({3-[5-(1,1-difluoroethyl)-6-methylpyridin-3-yl]-6-fluoro-2-oxo-2,3,4,5-tetrahydro-1H-1-benzazepin-1-yl}methyl)-4-fluorobenzonitrile], the values for the Ki on human OX1 receptor and on human OX2 receptor were 1.26 nM and above 501 nM, respectively.

The term Kd denotes the equilibrium constant for the complex coming apart. Read a low Kd as a tighter complex. Regarding `COc1cc(F)c(CN2C(=O)N(c3cnc(OC)c(OC)c3)S(=O)(=O)c3ccccc32)c(F)c1` [[^3H]-4-(2,6-difluoro-4-methoxybenzyl)-2-(5,6-dimethoxypyridin-3-yl)-2H-1,2,4-benzothiadiazin-3(4H)-one 1,1-dioxide, reference compound], the Kd was found to be 1.5 nM on human OX1 receptor (OX1 receptor membranes, saturation isotherms) and 0.75 nM on human OX2 receptor (OX2 receptor membranes, saturation isotherms).
